Reference: patent publication US20220185822A1, “SELECTIVE LIGANDS OF HUMAN CONSTITUTIVE ANDROSTANE RECEPTOR” (USTAV ORGANICKE CHEMIE A BIOCHEMIE AV CR, V.V.I., priority 2019, published 2022)
Entries after “also recorded” stand apart in the source; their conditions may differ.

Legend:
[1] = molecular target: T1, estradion α receptor (Homo sapiens, UniProt P03372); experiment: Luciferase reporter assay with GAL4 construct with LBD, estradion α receptor; type: cell-based; details: 10 μM/L
T1 construct: luciferase reporter assays with a GAL4 constructs with LBD of tested nuclear receptors; expressed in transfected cells
T1 sequence (P03372 311-547 limits assumed): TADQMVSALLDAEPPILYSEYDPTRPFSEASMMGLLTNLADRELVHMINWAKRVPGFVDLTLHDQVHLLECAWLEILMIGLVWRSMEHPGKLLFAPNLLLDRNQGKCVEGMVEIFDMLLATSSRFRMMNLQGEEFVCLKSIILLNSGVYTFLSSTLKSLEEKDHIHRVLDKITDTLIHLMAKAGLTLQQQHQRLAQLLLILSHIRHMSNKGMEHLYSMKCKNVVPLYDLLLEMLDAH

[2] = system: CYP3A4, CYP1A2, CYP2C9, CYP2C19, CYP2C8, CYP2D6, CYP2B6 (panel); experiment: in vitro; details: both, human, pooled human liver microsomes
[3] = system: differentiated HepaRG cells; experiment: Viability/cytotoxicity in differentiated HepaRG cells; type: cell-based, human; details: 48 h treatment
[4] = type: in vivo
Protocol: Livers were sampled 24 hours after the last application into liquid nitrogen. In case of i.p. Glucose Tolerance test (IPGTT), each mouse on chronic high fat diet received i.p. application of 20% glucose solution at the dose of lg glucose per kg b.w. Blood glucose concentration was analyzed with a glucometer from blood sampled from the tail. In case of i.p. Isulin Tolerance test (IPITT), mice received insulin administered via i.p. application in the dose of 0.75 mU/g b.w.

[5] = system: thyroid hormone receptors; experiment: Luciferase reporter assay with GAL4 construct with LBD, thyroid hormone receptors; type: cell-based, human; details: 10 μM/L
[6] = molecular target: T2, human androgen receptor (Homo sapiens, UniProt P10275); experiment: Luciferase reporter assay with GAL4 construct with LBD, androgen receptor; type: cell-based; details: 10 μM/L
T2 construct: luciferase reporter assays with a GAL4 constructs with LBD of tested nuclear receptors; expressed in transfected cells
T2 sequence (P10275 669-900 limits assumed): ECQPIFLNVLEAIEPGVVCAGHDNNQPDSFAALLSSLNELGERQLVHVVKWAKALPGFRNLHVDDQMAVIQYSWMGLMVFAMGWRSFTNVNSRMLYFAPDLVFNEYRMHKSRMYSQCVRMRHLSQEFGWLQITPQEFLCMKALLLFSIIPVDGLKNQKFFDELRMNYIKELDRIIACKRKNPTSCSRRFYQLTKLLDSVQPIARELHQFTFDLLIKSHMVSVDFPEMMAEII

[7] = Pharmacokinetic studies in mice
[8] = system: CYP2B6 mRNA (CAR target gene); experiment: RT-qPCR of CYP2B6 mRNA in primary human hepatocytes; type: cell-based; details: 48 hours, 1 and 5 μM/L (FIG. 4)
From the text: Delta-delta method and GAPDH/Gapdh or B2M/B2m housekeeping genes were used for relative quantification. Data are expressed as fold up-/down-regulation compare to vehicle-treated samples/mice.

[9] = Repeated Dose 7-day Oral Toxicity Study in Rats; type: in vivo; details: 1 and 10 mg/kg
Protocol: The studies were conducted on female rats.

[10] = molecular target: T3, human CYP1A2 (Homo sapiens, UniProt P05177); experiment: Commercial CYP450-Glo inhibition assay, CYP1A2; type: in vitro ADME
T3 construct: purchased Promega V8772
T3 sequence (P05177 whole entry): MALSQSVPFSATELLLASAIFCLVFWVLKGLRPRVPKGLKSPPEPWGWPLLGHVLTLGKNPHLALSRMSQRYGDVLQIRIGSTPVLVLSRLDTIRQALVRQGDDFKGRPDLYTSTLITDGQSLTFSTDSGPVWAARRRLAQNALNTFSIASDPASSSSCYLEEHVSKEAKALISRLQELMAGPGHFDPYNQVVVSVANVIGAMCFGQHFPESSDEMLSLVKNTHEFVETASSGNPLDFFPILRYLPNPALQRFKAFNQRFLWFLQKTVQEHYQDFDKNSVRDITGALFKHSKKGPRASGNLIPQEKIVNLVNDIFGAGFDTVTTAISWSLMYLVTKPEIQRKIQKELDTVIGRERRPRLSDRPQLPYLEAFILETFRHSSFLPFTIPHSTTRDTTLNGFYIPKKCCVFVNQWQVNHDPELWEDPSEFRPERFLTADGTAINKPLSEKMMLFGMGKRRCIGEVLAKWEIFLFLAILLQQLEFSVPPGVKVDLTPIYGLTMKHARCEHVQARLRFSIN

[11] = molecular target: T4, live X receptor α (Homo sapiens, UniProt Q13133); experiment: Luciferase reporter assay with GAL4 construct with LBD, live X receptor α; type: cell-based; details: 10 μM/L
T4 construct: luciferase reporter assays with a GAL4 constructs with LBD of tested nuclear receptors; expressed in transfected cells
T4 sequence (Q13133 209-447 limits assumed): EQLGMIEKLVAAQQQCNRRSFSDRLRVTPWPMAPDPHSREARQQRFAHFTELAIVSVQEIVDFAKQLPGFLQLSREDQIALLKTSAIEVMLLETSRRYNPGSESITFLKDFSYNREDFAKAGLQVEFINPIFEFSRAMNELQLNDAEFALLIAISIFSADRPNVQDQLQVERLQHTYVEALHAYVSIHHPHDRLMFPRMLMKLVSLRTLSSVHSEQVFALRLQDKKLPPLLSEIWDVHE

[12] = molecular target: T5, live X receptor β (Homo sapiens, UniProt P55055); experiment: Luciferase reporter assay with GAL4 construct with LBD, live X receptor β; type: cell-based; details: 10 μM/L
T5 construct: luciferase reporter assays with a GAL4 constructs with LBD of tested nuclear receptors; expressed in transfected cells
T5 sequence (P55055 222-460 limits assumed): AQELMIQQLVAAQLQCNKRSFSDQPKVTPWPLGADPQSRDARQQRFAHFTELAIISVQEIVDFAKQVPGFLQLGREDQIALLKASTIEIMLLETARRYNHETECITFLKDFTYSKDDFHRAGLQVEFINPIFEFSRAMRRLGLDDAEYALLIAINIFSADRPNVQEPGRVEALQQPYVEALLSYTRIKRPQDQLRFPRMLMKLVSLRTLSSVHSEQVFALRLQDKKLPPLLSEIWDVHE

[13] = system: primary human hepatocytes; experiment: Viability/cytotoxicity in primary human hepatocytes; type: cell-based; details: 48 h treatment
[14] = system: HepG2 cells; experiment: Cytotoxicity, cell viability (MTS) in HepG2; type: cell-based; details: Homo sapiens, 48-h treatment, no significant effect at 30 μM/L
Protocol: Cell viability in HepG2 and COS-1 cells after a 48 h treatment with test compounds at a concentration from 1 up to 30 μM was determined using the modified formazan-based […] assay. […] Briefly, the cells were treated with the test compounds or vehicle alone (DMSO) for 48 h. At the end of the treatment, 20 μl of MTS reagent was added directly to each culture wells and further cultivated for 1.5 h. Finally, the absorbance of converted formazan was recorded at 490 nm by plate reader (BioTec Synergy 2. Winooski. Vt. USA). Vehicle (DMSO) and TritonX100 (0.9%; v/v) controls of cell viability were set to be 100% and 0%, respectively.

[15] = molecular target: T6, CAR variant 3 (Homo sapiens, UniProt Q14994, DEL233-236); experiment: Luciferase reporter gene assay with CAR variant 3 in HepG2 cells; type: cell-based; details: tested at 1 μM; HepG2, 24 h
T6 construct: expressed in transfected cells; host or cells: HepG2
T6 sequence (Q14994 with tags, fused parts or gaps isoform Q14994-8 DEL233-236): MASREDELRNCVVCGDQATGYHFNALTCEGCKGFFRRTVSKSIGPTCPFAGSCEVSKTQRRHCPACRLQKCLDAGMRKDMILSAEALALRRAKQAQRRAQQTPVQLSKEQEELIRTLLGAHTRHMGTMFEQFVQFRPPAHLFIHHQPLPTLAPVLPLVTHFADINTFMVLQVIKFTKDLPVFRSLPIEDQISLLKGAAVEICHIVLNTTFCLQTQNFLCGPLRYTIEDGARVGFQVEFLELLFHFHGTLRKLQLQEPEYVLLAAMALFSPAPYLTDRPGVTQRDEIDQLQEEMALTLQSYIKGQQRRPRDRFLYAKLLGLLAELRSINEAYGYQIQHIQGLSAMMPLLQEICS
T6 sequence (P19793 1-462 partner): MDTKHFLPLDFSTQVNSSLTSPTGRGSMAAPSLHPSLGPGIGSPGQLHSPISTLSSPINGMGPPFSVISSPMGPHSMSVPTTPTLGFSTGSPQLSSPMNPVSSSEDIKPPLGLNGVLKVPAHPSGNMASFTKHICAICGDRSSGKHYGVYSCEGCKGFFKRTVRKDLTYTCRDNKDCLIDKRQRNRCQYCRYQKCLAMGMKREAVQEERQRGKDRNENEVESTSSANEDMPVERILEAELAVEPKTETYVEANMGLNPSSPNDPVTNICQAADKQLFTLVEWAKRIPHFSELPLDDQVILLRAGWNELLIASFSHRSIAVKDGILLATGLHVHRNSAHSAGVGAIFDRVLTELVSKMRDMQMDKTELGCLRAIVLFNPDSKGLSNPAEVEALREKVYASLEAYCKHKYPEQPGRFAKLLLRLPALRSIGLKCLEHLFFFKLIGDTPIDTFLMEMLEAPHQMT

[16] = molecular target: T7, human CYP3A4 (Homo sapiens, UniProt P08684); experiment: Commercial CYP450-Glo inhibition assay, CYP3A4; type: in vitro ADME
T7 construct: purchased Promega V8802
T7 sequence (P08684 whole entry): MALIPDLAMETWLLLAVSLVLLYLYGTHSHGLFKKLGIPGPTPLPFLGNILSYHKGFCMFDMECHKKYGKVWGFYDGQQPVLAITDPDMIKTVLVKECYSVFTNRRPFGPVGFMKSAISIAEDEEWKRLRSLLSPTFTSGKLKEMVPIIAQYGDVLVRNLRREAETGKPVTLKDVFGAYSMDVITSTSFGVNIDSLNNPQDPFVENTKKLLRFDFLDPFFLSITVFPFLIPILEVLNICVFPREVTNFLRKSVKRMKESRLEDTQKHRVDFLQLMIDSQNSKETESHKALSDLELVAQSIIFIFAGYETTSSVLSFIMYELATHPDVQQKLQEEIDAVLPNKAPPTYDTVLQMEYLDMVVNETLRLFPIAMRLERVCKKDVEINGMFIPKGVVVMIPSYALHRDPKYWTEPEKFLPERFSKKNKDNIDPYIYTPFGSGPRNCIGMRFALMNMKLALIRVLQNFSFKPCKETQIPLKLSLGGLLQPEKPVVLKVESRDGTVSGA

[17] = molecular target: T8, glucocorticoid receptor (Homo sapiens, UniProt P04150); experiment: Luciferase reporter assay with GAL4 construct with LBD, glucocorticoid receptor; type: cell-based; details: 10 μM/L
T8 construct: luciferase reporter assays with a GAL4 constructs with LBD of tested nuclear receptors; expressed in transfected cells
T8 sequence (P04150 524-758 limits assumed): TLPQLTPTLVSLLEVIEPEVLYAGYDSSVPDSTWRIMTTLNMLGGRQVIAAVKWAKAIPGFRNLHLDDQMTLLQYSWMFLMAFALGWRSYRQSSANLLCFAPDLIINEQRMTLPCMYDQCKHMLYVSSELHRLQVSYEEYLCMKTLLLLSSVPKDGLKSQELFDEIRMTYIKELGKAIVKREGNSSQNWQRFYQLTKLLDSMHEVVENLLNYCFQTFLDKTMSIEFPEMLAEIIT

[18] = molecular target: T9, vitamin D receptor (Homo sapiens, UniProt P11473); experiment: Luciferase reporter assay with GAL4 construct with LBD, vitamin D receptor; type: cell-based; details: 10 μM/L
T9 construct: luciferase reporter assays with a GAL4 constructs with LBD of tested nuclear receptors; expressed in transfected cells
T9 sequence (P11473 127-423 limits assumed): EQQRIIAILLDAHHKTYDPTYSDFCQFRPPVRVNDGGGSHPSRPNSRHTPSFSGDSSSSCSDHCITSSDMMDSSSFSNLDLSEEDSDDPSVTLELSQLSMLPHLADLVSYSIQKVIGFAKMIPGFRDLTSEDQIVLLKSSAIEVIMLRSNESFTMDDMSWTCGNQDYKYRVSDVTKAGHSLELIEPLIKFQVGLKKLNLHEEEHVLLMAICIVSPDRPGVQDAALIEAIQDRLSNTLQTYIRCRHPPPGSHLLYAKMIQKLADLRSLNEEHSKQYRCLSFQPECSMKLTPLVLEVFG

[19] = molecular target: T10, PPARδ (Homo sapiens, UniProt Q03181); experiment: Luciferase reporter assay with GAL4 construct with LBD, PPARδ; type: cell-based; details: 10 μM/L
T10 construct: luciferase reporter assays with a GAL4 constructs with LBD of tested nuclear receptors; expressed in transfected cells
T10 sequence (Q03181 211-439 limits assumed): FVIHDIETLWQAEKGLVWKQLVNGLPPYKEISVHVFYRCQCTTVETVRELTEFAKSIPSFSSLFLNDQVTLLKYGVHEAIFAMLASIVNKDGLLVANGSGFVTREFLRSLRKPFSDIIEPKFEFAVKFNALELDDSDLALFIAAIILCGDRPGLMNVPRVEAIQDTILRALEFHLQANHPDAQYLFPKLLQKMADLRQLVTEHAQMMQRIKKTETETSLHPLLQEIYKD

[20] = molecular target: T11, estradion β receptor (Homo sapiens, UniProt Q92731); experiment: Luciferase reporter assay with GAL4 construct with LBD, estradion β receptor; type: cell-based; details: 10 μM/L
T11 construct: luciferase reporter assays with a GAL4 constructs with LBD of tested nuclear receptors; expressed in transfected cells
T11 sequence (Q92731 264-498 limits assumed): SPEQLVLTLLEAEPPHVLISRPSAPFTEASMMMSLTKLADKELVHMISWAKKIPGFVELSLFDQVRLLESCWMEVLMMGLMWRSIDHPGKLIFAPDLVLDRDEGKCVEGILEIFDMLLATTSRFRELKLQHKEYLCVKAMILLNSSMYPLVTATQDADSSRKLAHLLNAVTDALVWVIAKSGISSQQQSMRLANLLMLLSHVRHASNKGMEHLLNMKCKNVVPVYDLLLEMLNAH

[21] = 10 mg/kg b.w. by gavage for 4 weeks, 60% high-fat diet 8 weeks

SMILES: NC(=O)c1cc(Cn2cc(-c3c(-c4ccc(Cl)cc4)nc4cc(F)ccn34)nn2)ccc1Cl [Example 93, 2-Chloro-5-((4-(2-(4-chlorophenyl)-7-fluoroimidazo[1,2-a]pyridin-3-yl)-1H-1,2,3-triazol-1-yl)methyl)benzamide]
- activation of estradion α receptor [1]: do not activate
- IC50 [2]: > 10 µM
- viability/cytotoxicity in differentiated HepaRG cells [3]: no effect on viability/cytotoxicity
- insulin sensitivity in IPGTT and IPITT [4, 21]: stimulatory effect on insulin sensitivity; also recorded: alleviates insuline resistance and stimulates the effect of insuline
- liver hypertrophy (liver-to-body weight ratio) [4, 21]: does not stimulate significantly liver hypertrophy
- Mki67 mRNA in mouse liver ([4]; 10 mg/kg, 4 weeks): did not significantly up-regulate
- RNA level of Fasn in mouse liver ([4]; 10 mg/kg, 4 weeks): significantly decrease
- RNA level of Scd1 in mouse liver ([4]; 10 mg/kg, 4 weeks): significantly decrease
- hepatotoxicity (ALT, AST, ALP, LDH biochemical markers) ([4]; 10 mg/kg, 4 weeks): does not display hepatotoxicity
- plasma LDL ([4]; 10 mg/kg, 4 weeks): has an effect; also recorded: decreases
- plasma cholesterol ([4]; 10 mg/kg, 4 weeks): has an effect; also recorded: decreases
- body weight ([4]; 10 mg/kg, after 4 weeks of application): decrease body weight; also recorded: reduces the body weight
- activation of thyroid hormone receptors [5]: do not activate
- activation of human androgen receptor [6]: do not activate
- Bioavailability (F) based on AUCp.o./AUCi.p. ratio ([7]; 10 mg/kg, C57BL/6N mice): 98.6%
- delivery into the liver and bile ([7]; FIG. 6): excellent delivery into the liver and bile
- CYP2B6 mRNA in primary human hepatocytes [8]: up-regulates
- clinical signs of toxicity, Repeated Dose 7-day Oral Toxicity Study in Rats [9]: No significant clinical signs of toxicity
- IC50 [10]: > 10 µM
- activation of live X receptor α [11]: do not activate
- activation of live X receptor β [12]: do not activate
- viability/cytotoxicity in primary human hepatocytes [13]: no effect on viability/cytotoxicity
- IC50 [14]: > 30 µM
- CAR3 % of CITCO (1 μM) activity at 1 μM [15]: 83%
- IC50 [16]: > 10 µM
- activation of glucocorticoid receptor [17]: do not activate
- activation of vitamin D receptor [18]: do not activate
- activation of PPARδ [19]: do not activate
- activation of estradion β receptor [20]: do not activate
